3 molecules from paper PMC9965125, “New NSAID Conjugates as Potent and Selective COX-2 Inhibitors: Synthesis, Molecular Modeling and Biological Investigation” (Molecules, 2023) can be followed below.

In general, IC50 refers to the concentration that inhibits the measured activity by half.

Several values for one entry are separate records, joined by “and”; a condition that tells them apart may be missing. Equal entries are not always repeated.

In data set [1] the test system is hot plate latency. As to the kind of experiment: hot plate assay (central analgesic). The class given is in vivo, mice. Particulars: for % Protection / Latency Period ± SE: 10 mg/kg indomethacin mol equivalent i.p.; for Latency Period ± SE: cutoff 15 sec; for Potency: at 120 min compared to indomethacin.
The test system of data set [2] is mice. As to the kind of experiment: toxicological bioassay. The class given is in vivo. The note with it: five times the anti-inflammatory dose (50 mg/kg indomethacin mol equivalent); recorded 24 h post-administration. The method, then: Five times the anti-inflammatory dose was orally administrated. […]
5a, 5b, 5d, 5e) was determined utilizing the standard method in mice. Albino mice weighing 20–25 g were divided into 6 groups of 6 mice each. Administrations of the tested compounds dissolved in distilled water by the aid of few drops of Tween 80 were given intraperitoneally in 50 […]
inflammatory dosage). The control group was given water only with few drops of Tween 80. The toxic symptoms and mortality rates were recorded 24 h post -administration in each group.

Data set [3] has as its system carrageenan induced paw edema. As to the kind of experiment: carrageenan-induced rat paw edema. The class given is in vivo. The note with it: for % Inhibition of Edema ± Standard Error / Mean Edema Thickness: 10 mg/kg indomethacin mol equivalent i.p.; for Mean Edema Thickness: ± standard error.
Data set [4] addresses T1, COX-2 (Homo sapiens, UniProt P35354).
T1 construct: purchased BioVision Incorporated K547-100 and K548-100
T1 sequence (P35354 18-604): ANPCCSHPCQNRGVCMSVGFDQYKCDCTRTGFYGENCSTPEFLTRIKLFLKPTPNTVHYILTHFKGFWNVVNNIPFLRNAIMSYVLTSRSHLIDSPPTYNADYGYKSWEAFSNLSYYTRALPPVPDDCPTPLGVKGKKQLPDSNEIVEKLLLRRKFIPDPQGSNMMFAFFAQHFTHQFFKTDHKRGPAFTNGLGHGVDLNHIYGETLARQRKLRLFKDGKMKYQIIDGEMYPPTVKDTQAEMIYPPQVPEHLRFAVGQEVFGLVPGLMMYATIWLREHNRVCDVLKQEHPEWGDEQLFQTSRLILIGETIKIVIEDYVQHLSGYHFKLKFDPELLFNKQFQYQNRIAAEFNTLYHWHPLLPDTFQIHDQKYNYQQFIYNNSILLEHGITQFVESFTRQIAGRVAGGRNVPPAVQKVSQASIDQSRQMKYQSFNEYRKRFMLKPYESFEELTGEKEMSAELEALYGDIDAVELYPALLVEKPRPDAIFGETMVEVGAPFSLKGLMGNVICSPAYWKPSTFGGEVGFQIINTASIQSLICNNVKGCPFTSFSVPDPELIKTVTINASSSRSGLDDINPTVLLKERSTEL
Kind of data set: COX-2 inhibitor screening assay (fluorometric kit). Type of data set: biochemical. The note with it: for SI: SI = IC50 (COX-1)/IC50 (COX-2); for IC50: read-out: IC50, μM ± SD COX-2. The method, then:
the manufactor’s instructions.
The COX-1/2 inhibitor screening protocols can be summarized in following:
The test compound is dissolved in DMSO. Dilute to 10X the desired test concentration with COX-1 Assay Buffer before use. Add 10 μl diluted test inhibitor or Assay Buffer into assigned wells as sample screen [S] or Enzyme Control [EC] (no inhibitor) respectively. Add 2 μl of SC560 (in case […]
the wells as Inhibitor Control [IC].
Dilute COX Cofactor 200 times by adding 2 μl of COX Cofactor to 398 μl of COX Assay Buffer just before use. Mix well. Prepare Arachidonic Acid solution by adding 5 μl of supplied Arachidonic Acid to 5 μl of NaOH just before use. Vortex briefly to mix. Dilute Arachidonic Acid/NaOH solution 10 times by adding 90 μl ddH2O, vortex briefly to mix. Make as much as […]
For each well, prepare 80 μl of master mix as follows:
Diluted COX Cofactor 2 μl
Add 80 μl of Reaction Mix into each well. Use a multi -channel pipette to add 10 μl of diluted Arachidonic Acid/NaOH solution into each well to initiate all the reactions at the same time.
(T1 and T2) in the linear range of the plot and obtain the corresponding fluorescence values (RFU 1 […]
Calculate the slope for all samples, including Enzyme Control (EC), by dividing the net ΔRFU (RFU2 – RFU1) values by the time ΔT (T2 – T1). Calculate % Relative Inhibition as follows:
% Relative Inhibition = Slope of EC − Slope of S X 100

As for `COc1ccccc1-n1cc(COC(=O)C(C)c2ccc(CC(C)C)cc2)nn1` (stereo not shown) [Compound 5e, (1-(2-Methoxyphenyl)-1H-1,2,3-triazol-4-yl)methyl 2-(4-isobutylphenyl)propanoate], the “% Protection” value in data set [1] (after 30 min) came out at 88.8%; in data set [1] (after 60 min), 44.8%; in data set [1] (after 90 min) it was 36.03%; in data set [1] (after 120 min, 10 mg/kg) it was 28%. For the same molecule, the “Latency Period ± SE” value in data set [1] (after 30 min) stood at 12.61 ± 2.1 s; in data set [1] (after 60 min), 10.53 ± 1.8 s; in data set [1] (after 90 min), 12.12 ± 1.7 s; in data set [1] (after 120 min), 11.53 ± 1.3 s. In data set [1], this molecule had a Potency of 49.6. In addition, the “toxic symptoms or mortality” value in data set [2] was “No toxic symptoms or mortality”. Moreover, in data set [3] (4 h), the “% Inhibition of Edema ± Standard Error” value was 7.4 ± 1.8%. Moreover, the SI in data set [4] is on record as 0.387. Moreover, the IC50 in data set [4] turned out to be 14 ± 0.4 µM.
Take `Cc1ccc(-n2cc(COC(=O)C(C)c3ccc(CC(C)C)cc3)nn2)cc1` (stereo not shown) [Compound 5d, (1-(p-Tolyl)-1H-1,2,3-triazol-4-yl)methyl 2-(4-isobutylphenyl)propanoate]: the “% Protection” value in data set [1] (after 30 min) stood at 65.0%; in data set [1] (after 60 min), 35.6%; in data set [1] (after 90 min) it was 20.0%; in data set [1] (after 120 min), 1.2%. Also, the “Latency Period ± SE” value in data set [1] (after 30 min) amounted to 11.02 ± 1.4 s; in data set [1] (after 60 min), 9.86 ± 0.7 s; in data set [1] (after 90 min), 10.69 ± 0.9 s; in data set [1] (after 120 min), 9.12 ± 1.1 s. Also, the Potency in data set [1] came out at 2.1. Moreover, in data set [2], the “toxic symptoms or mortality” value is “No toxic symptoms or mortality”. For the same molecule, the “% Inhibition of Edema ± Standard Error” value in data set [3] (24 h) is reported as 0.00 ± 1.7%. In addition, the SI in data set [4] was 2.158. Moreover, the IC50 in data set [4] was 4.47 ± 0.13 µM.
Consider `C#CCOC(=O)C(C)c1ccc(CC(C)C)cc1` (stereo not shown) [Compound 3, Prop-2-yn-1-yl 2-(4-isobutylphenyl) Propanoate], for which the “% Protection” value in data set [1] (after 30 min) worked out at 55.2%; in data set [1] (after 60 min) it was 48.3%; in data set [1] (after 90 min), 19.2%; in data set [1] (after 120 min), 14.9%. Also, the “Latency Period ± SE” value in data set [1] (after 30 min) amounted to 10.37 ± 1.6 s; in data set [1] (after 60 min) it was 10.78 ± 2.1 s; in data set [1] (after 90 min), 10.62 ± 2.2 s; in data set [1] (after 120 min), 10.35 ± 1.7 s. Besides, the Potency in data set [1] stood at 26.4. Moreover, in data set [2], the “toxic symptoms or mortality” value is “No toxic symptoms or mortality”. The “% Inhibition of Edema ± Standard Error” value in data set [3] (1 h) is 15.8 ± 1.9%; in data set [3] (2 h), 17.4 ± 0.9%; in data set [3] (3 h, 10 mg/kg), 85.8% and 85.8 ± 1.1%; in data set [3] (4 h), 33.7 ± 1.2%; in data set [3] (24 h) it was 0.00 ± 0.3%. Further, the “Mean Edema Thickness” value in data set [3] (1 h) is 0.727 ± 0.05 mm; in data set [3] (2 h) it was 0.589 ± 0.01 mm; in data set [3] (3 h), 0.103 ± 0.04 mm; in data set [3] (4 h), 0.473 ± 0.03 mm; in data set [3] (24 h) it was 0.920 ± 0.02 mm. The “% Potency” value in data set [3] (% inhibition of edema thickness relative to indomethacin at 3 h) is reported as 105.8%. For the same molecule, the SI in data set [4] is 2.262. In data set [4], the IC50 came out at 8.6 ± 0.24 µM.
